The results in this text go back to the supplement of paper PMC11208160.

A short description of the data set: recombinant UMI read abundance after kanamycin selection (control-corrected) (log10(CPM+1)); higher = more efficient recombination; extreme values may be limits of the assay; sequences stand for … in AGTGCAGAGAAAATCGGCCAGTTTTCTCTGCCTGCAGTCCGCATGCCGTGGGACCCCTTGGGTTCTAACCTGTTGCCTAGATTTATGCAGCGGACTGCCTTTCTCCCAAAGTGATAAACCGG…AGGTTGGTTTCACT; site = the 11-nt donor. Summed up:
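Reported values are log10(CPM+1) from a pooled Escherichia coli screen of donor and donor-binding-loop pairs for the IS621 bridge recombinase. Selection used IPTG (0.07 mM) plus kanamycin, against unselected plating, each in two replicates. Recombinant UMIs were amplified across the donor–target junction, sequenced, converted to CPM, averaged over replicates and scaled by control-derived factors.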
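Further: IS621 bridge recombinase in Escherichia coli cells against a fixed T5 target plasmid.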

Consider “CCCTGGCCATGGACCGGTTTTCCCGGTAATCCGTATTTGCC (site CCCTGGCCTGG)”, for which the “recombinant UMI read abundance (log10)” value amounted to 0.

Consider “CCCTGGCCATGGACCGGTTTTCCCGGTAATCCGTATTTGCC (site CCCTTGCCTGG)”, for which the “recombinant UMI read abundance (log10)” value was 0.

As to “CCCTTCACATGGACCGGTTTTCCCGGTAATCCGTATTTGGG (site CCCTTCACTCC)”, the “recombinant UMI read abundance (log10)” value was determined as 0.004.

For “CCCTTCACATGGACCGGTTTTCCCGGTAATCCGTATTTGGG (site CCCTTCCCTCC)”, the “recombinant UMI read abundance (log10)” value is 0.0128.

Regarding “CCCTTCACATGGACCGGTTTTCCCGGTAATCCGTATTTGGG (site CCCTTCGCTCC)”, the “recombinant UMI read abundance (log10)” value stood at 0.0224.

As to “CCCTTCACATGGACCGGTTTTCCCGGTAATCCGTATTTGGG (site CCCTTCTCTCC)”, the “recombinant UMI read abundance (log10)” value worked out at 0.0124.

For the sequence “CCCTTCCCATGGACCGGTTTTCCCGGTAATCCGTATTTGGG (site CCCTTCACTCC)”, the “recombinant UMI read abundance (log10)” value is 0.0226.

Turning to “CCCTTCCCATGGACCGGTTTTCCCGGTAATCCGTATTTGGG (site CCCTTCCCTCC)”, the “recombinant UMI read abundance (log10)” value was determined as 0.00862.

As to “CCCTTCCCATGGACCGGTTTTCCCGGTAATCCGTATTTGGG (site CCCTTCGCTCC)”, the “recombinant UMI read abundance (log10)” value worked out at 0.00355.

For “CCCTTCCCATGGACCGGTTTTCCCGGTAATCCGTATTTGGG (site CCCTTCTCTCC)”, the “recombinant UMI read abundance (log10)” value came to 0.0121.

Consider “CCCTTCTCATGGACCGGTTTTCCCGGTAATCCGTATTTGGC (site CCCTTCTCTAC)”, for which the “recombinant UMI read abundance (log10)” value is 0.0232.

With “CCCTTCTCATGGACCGGTTTTCCCGGTAATCCGTATTTGGC (site CCCTTCTCTCC)”, the “recombinant UMI read abundance (log10)” value is 0.455.

For the sequence “CCCTTCTCATGGACCGGTTTTCCCGGTAATCCGTATTTGGC (site CCCTTCTCTGC)”, the “recombinant UMI read abundance (log10)” value came out at 1.71.

“CCCTTCTCATGGACCGGTTTTCCCGGTAATCCGTATTTGGC (site CCCTTCTCTTC)”: the “recombinant UMI read abundance (log10)” value worked out at 0.00807.

For “CCGAAGCCATGGACCGGTTTTCCCGGTAATCCGTATTTGTG (site CCGAAGCCTCA)”, the “recombinant UMI read abundance (log10)” value is 0.0182.

In the case of “CCGAATCCATGGACCGGTTTTCCCGGTAATCCGTATTTGCT (site CCGAATCCTAG)”, the “recombinant UMI read abundance (log10)” value came to 0.196.

Turning to “CCGAATCCATGGACCGGTTTTCCCGGTAATCCGTATTTGCT (site CGGAATCCTAA)”, the “recombinant UMI read abundance (log10)” value amounted to 0.

Take “CCGAATTCATGGACCGGTTTTCCCGGTAATCCGTATTTGGG (site CCGAATTCTCC)”: the “recombinant UMI read abundance (log10)” value came out at 0.

Take “CCGCACACATGGACCGGTTTTCCCGGTAATCCGTATTTGAA (site CCGCACACTTT)”: the “recombinant UMI read abundance (log10)” value turned out to be 0.931.

For “CCGCATCCATGGACCGGTTTTCCCGGTAATCCGTATTTGGG (site CCGCATCCTCC)”, the “recombinant UMI read abundance (log10)” value was 0.0031.

Take “CCGCCAACATGGACCGGTTTTCCCGGTAATCCGTATTTGAG (site CCGCCAACTCT)”: the “recombinant UMI read abundance (log10)” value was 0.356.

Turning to “CCGCGGGCATGGACCGGTTTTCCCGGTAATCCGTATTTGCC (site CCGCGGGCTGG)”, the “recombinant UMI read abundance (log10)” value turned out to be 1.43.

With “CCGCGTGCATGGACCGGTTTTCCCGGTAATCCGTATTTGCG (site CCGCGTGCTCG)”, the “recombinant UMI read abundance (log10)” value worked out at 0.222.

“CCGCTCTCATGGACCGGTTTTCCCGGTAATCCGTATTTGTT (site CCGCTCTCTAA)”: the “recombinant UMI read abundance (log10)” value came out at 1.51.

Regarding “CCGCTGCCATGGACCGGTTTTCCCGGTAATCCGTATTTGAA (site CCGCTGCCTTT)”, the “recombinant UMI read abundance (log10)” value amounted to 0.0286.

Consider “CCGCTTACATGGACCGGTTTTCCCGGTAATCCGTATTTGGA (site CCGCTTACTTC)”, for which the “recombinant UMI read abundance (log10)” value stood at 0.539.

In the case of “CCGGACCCATGGACCGGTTTTCCCGGTAATCCGTATTTGTT (site CCGGACCCTAA)”, the “recombinant UMI read abundance (log10)” value was found to be 0.0191.

Consider “CCGGCACCATGGACCGGTTTTCCCGGTAATCCGTATTTGAT (site CCGGCACCTAT)”, for which the “recombinant UMI read abundance (log10)” value came to 0.00703.

Consider “CCGGCATCATGGACCGGTTTTCCCGGTAATCCGTATTTGCG (site CCGGCATCTCG)”, for which the “recombinant UMI read abundance (log10)” value came out at 0.

As to “CCGGCCGCATGGACCGGTTTTCCCGGTAATCCGTATTTGCC (site CCGGCCGCTGG)”, the “recombinant UMI read abundance (log10)” value was found to be 0.

Take “CCGGGGCCATGGACCGGTTTTCCCGGTAATCCGTATTTGGT (site CCGGGGCCTAC)”: the “recombinant UMI read abundance (log10)” value was 0.0146.

As to “CCGGGTCCATGGACCGGTTTTCCCGGTAATCCGTATTTGCA (site CCAGGTCCTTG)”, the “recombinant UMI read abundance (log10)” value stood at 0.

Take “CCGGGTCCATGGACCGGTTTTCCCGGTAATCCGTATTTGCA (site CCCGGTCCTTG)”: the “recombinant UMI read abundance (log10)” value was 0.

As for “CCGGGTCCATGGACCGGTTTTCCCGGTAATCCGTATTTGCA (site CCGGGTCCTTG)”, the “recombinant UMI read abundance (log10)” value amounted to 0.00309.

For “CCGGGTCCATGGACCGGTTTTCCCGGTAATCCGTATTTGCA (site CCTGGTCCTTG)”, the “recombinant UMI read abundance (log10)” value came out at 0.0157.

With “CCGGTAACATGGACCGGTTTTCCCGGTAATCCGTATTTGCG (site CCGGTAACTCG)”, the “recombinant UMI read abundance (log10)” value came to 0.686.

For the sequence “CCGTAACCATGGACCGGTTTTCCCGGTAATCCGTATTTGGT (site CCGTAACCTAC)”, the “recombinant UMI read abundance (log10)” value amounted to 0.

As for “CCGTAGCCATGGACCGGTTTTCCCGGTAATCCGTATTTGCC (site CCATAGCCTGG)”, the “recombinant UMI read abundance (log10)” value came to 0.

Regarding “CCGTAGCCATGGACCGGTTTTCCCGGTAATCCGTATTTGCC (site CCCTAGCCTGG)”, the “recombinant UMI read abundance (log10)” value is 0.

“CCGTAGCCATGGACCGGTTTTCCCGGTAATCCGTATTTGCC (site CCGTAGCCTGG)”: the “recombinant UMI read abundance (log10)” value came to 0.

Consider “CCGTAGCCATGGACCGGTTTTCCCGGTAATCCGTATTTGCC (site CCTTAGCCTGG)”, for which the “recombinant UMI read abundance (log10)” value is 0.

Regarding “CCGTATACATGGACCGGTTTTCCCGGTAATCCGTATTTGCT (site CCGTATACTAG)”, the “recombinant UMI read abundance (log10)” value is 1.24.

For “CCGTATACATGGACCGGTTTTCCCGGTAATCCGTATTTGCT (site CCGTCTACTAG)”, the “recombinant UMI read abundance (log10)” value turned out to be 0.

In the case of “CCGTATACATGGACCGGTTTTCCCGGTAATCCGTATTTGCT (site CCGTGTACTAG)”, the “recombinant UMI read abundance (log10)” value was 0.

Take “CCGTATACATGGACCGGTTTTCCCGGTAATCCGTATTTGCT (site CCGTTTACTAG)”: the “recombinant UMI read abundance (log10)” value was 0.

Turning to “CCGTATGCATGGACCGGTTTTCCCGGTAATCCGTATTTGAA (site CCGTATGCTTT)”, the “recombinant UMI read abundance (log10)” value is 1.14.

As to “CCGTCCCCATGGACCGGTTTTCCCGGTAATCCGTATTTGCT (site CCGTCCCCTAG)”, the “recombinant UMI read abundance (log10)” value turned out to be 0.00559.

As for “CCGTCGACATGGACCGGTTTTCCCGGTAATCCGTATTTGGG (site CAGTCGACTCC)”, the “recombinant UMI read abundance (log10)” value turned out to be 0.01.

Consider “CCGTCGACATGGACCGGTTTTCCCGGTAATCCGTATTTGGG (site CCGTCGACTCC)”, for which the “recombinant UMI read abundance (log10)” value was 0.0232.

As to “CCGTCGACATGGACCGGTTTTCCCGGTAATCCGTATTTGGG (site CGGTCGACTCC)”, the “recombinant UMI read abundance (log10)” value was 0.0251.

Consider “CCGTCGACATGGACCGGTTTTCCCGGTAATCCGTATTTGGG (site CTGTCGACTCC)”, for which the “recombinant UMI read abundance (log10)” value turned out to be 0.

With “CCGTTAACATGGACCGGTTTTCCCGGTAATCCGTATTTGCT (site CCGTTAACTAG)”, the “recombinant UMI read abundance (log10)” value was determined as 2.18.

As to “CCGTTAACATGGACCGGTTTTCCCGGTAATCCGTATTTGCT (site CCGTTCACTAG)”, the “recombinant UMI read abundance (log10)” value worked out at 0.

On to “CCGTTAACATGGACCGGTTTTCCCGGTAATCCGTATTTGCT (site CCGTTGACTAG)”, for which the “recombinant UMI read abundance (log10)” value is 0.00307.

As for “CCGTTAACATGGACCGGTTTTCCCGGTAATCCGTATTTGCT (site CCGTTTACTAG)”, the “recombinant UMI read abundance (log10)” value came out at 0.

“CCGTTAGCATGGACCGGTTTTCCCGGTAATCCGTATTTGTA (site CCGTTAGCTAA)”: the “recombinant UMI read abundance (log10)” value is 0.0181.

With “CCGTTAGCATGGACCGGTTTTCCCGGTAATCCGTATTTGTA (site CCGTTAGCTCA)”, the “recombinant UMI read abundance (log10)” value stood at 0.00671.

For the sequence “CCGTTAGCATGGACCGGTTTTCCCGGTAATCCGTATTTGTA (site CCGTTAGCTGA)”, the “recombinant UMI read abundance (log10)” value is 0.

In the case of “CCGTTAGCATGGACCGGTTTTCCCGGTAATCCGTATTTGTA (site CCGTTAGCTTA)”, the “recombinant UMI read abundance (log10)” value amounted to 0.601.

As for “CCGTTAGCATGGACCGGTTTTCCCGGTAATCCGTATTTGTC (site CCGTTAGCTAA)”, the “recombinant UMI read abundance (log10)” value was determined as 0.0291.

Consider “CCGTTAGCATGGACCGGTTTTCCCGGTAATCCGTATTTGTC (site CCGTTAGCTCA)”, for which the “recombinant UMI read abundance (log10)” value is 0.00762.

Regarding “CCGTTAGCATGGACCGGTTTTCCCGGTAATCCGTATTTGTC (site CCGTTAGCTGA)”, the “recombinant UMI read abundance (log10)” value was 1.58.

Take “CCGTTAGCATGGACCGGTTTTCCCGGTAATCCGTATTTGTC (site CCGTTAGCTTA)”: the “recombinant UMI read abundance (log10)” value came to 0.396.

As to “CCGTTAGCATGGACCGGTTTTCCCGGTAATCCGTATTTGTT (site CCGTTAGCTAA)”, the “recombinant UMI read abundance (log10)” value turned out to be 1.02.

As for “CCGTTAGCATGGACCGGTTTTCCCGGTAATCCGTATTTGTT (site CCGTTAGCTCA)”, the “recombinant UMI read abundance (log10)” value was determined as 0.00936.

Take “CCGTTAGCATGGACCGGTTTTCCCGGTAATCCGTATTTGTT (site CCGTTAGCTGA)”: the “recombinant UMI read abundance (log10)” value is 0.

Consider “CCGTTAGCATGGACCGGTTTTCCCGGTAATCCGTATTTGTT (site CCGTTAGCTTA)”, for which the “recombinant UMI read abundance (log10)” value is 0.00339.

With “CCGTTATCATGGACCGGTTTTCCCGGTAATCCGTATTTGTG (site CCGTTAACTCA)”, the “recombinant UMI read abundance (log10)” value was 0.0485.
